Test system: cardiac gene expression
Test: Microarray analysis of cardiac gene expression (GeneChip Mouse Genome 430 2.0)
Format: in vivo, mice
Procedure: Microarray Sample Preparation and Analysis. Animal hearts were rapidly removed, and the atria and right ventricles were cut and immediately plunged into TRIzol Reagent (Life Technologies). Total RNA was isolated following the manufacturer's instructions, purified by phenol-chloroform extraction and then ethanol precipitation, and 20 μg further processed for microarray analysis. Briefly, cDNA synthesis, in vitro transcription, and labeling and fragmentation to produce the oligonucleotide probes were performed as instructed by the GeneChip manufacturer (Affymetrix). The probes were first hybridized to a test array (Affymetrix) and then to the GeneChip Mouse Genome 430 2.0 Array, using the GeneChip Hybridization Oven 640. The chips were washed in a GeneChip Fluidics Station 450 (Affymetrix), and the results were visualized with a GeneChip G7 scanner (Affymetrix). RMA normalization, pairwise comparisons, Student's t test and Benjamini and Hochberg correction were subsequently performed using GeneSifter (VizX Labs, Seattle, Wash.) and Spotfire DecisionSite 8.3 (Spotfire, Inc., Somerville, Mass.).
Effects on Gene Expression Profile. […] One mouse heart was used for each array, and was performed in triplicate, generating a total of 12 arrays. GeneSifter was used to perform RMA normalization, pairwise comparisons of averaged signal intensity values, and Student's t-test with Benjamini and Hochberg correction, and Spotfire was used to perform pairwise comparisons. […] Additionally, genes that were altered between any two N or cardiac hypertrophy samples were removed, as these alterations most likely represented normal variations between mice.

[1] = heart, drug + isoproterenol vs isoproterenol only
[2] = mouse heart, vs isoproterenol only (CH), CH vs normal 1.6
[3] = mouse heart, vs isoproterenol only (CH), CH vs normal 1.7
[4] = mouse heart, vs isoproterenol only (CH), CH vs normal 1.8
[5] = mouse heart, vs isoproterenol only (CH), CH vs normal 1.9
[6] = mouse heart, vs isoproterenol only (CH), CH vs normal 2.0
[7] = mouse heart, vs isoproterenol only (CH), CH vs normal 2.1
[8] = mouse heart, vs isoproterenol only (CH), CH vs normal 2.2
[9] = mouse heart, vs isoproterenol only (CH), CH vs normal 2.3
[10] = mouse heart, vs isoproterenol only (CH), CH vs normal 2.4
[11] = mouse heart, vs isoproterenol only (CH), CH vs normal 2.5
[12] = mouse heart, vs isoproterenol only (CH), CH vs normal 2.6
[13] = mouse heart, vs isoproterenol only (CH), CH vs normal 2.7
[14] = mouse heart, vs isoproterenol only (CH), CH vs normal 2.9
[15] = mouse heart, vs isoproterenol only (CH), CH vs normal 3.0
[16] = mouse heart, vs isoproterenol only (CH), CH vs normal 3.1
[17] = mouse heart, vs isoproterenol only (CH), CH vs normal 3.2

SMILES: C[C@H]1c2cccc(O)c2C(=O)C2=C(O)[C@]3(O)C(=O)C(C(N)=O)=C(O)[C@@H](N(C)C)[C@@H]3[C@@H](O)[C@@H]21 [doxycycline]
- FC EGF, latrophilin seven transmembrane domain containing 1 (Eltd1) (GenBank NM_133222, vs mice given only isoproterenol): −1.7
- FC ERBB receptor feedback inhibitor 1 (Errifi1) (GenBank NM_133753, vs mice given only isoproterenol): −2.7
- FC F-box only protein 31 (Fboxo31) (GenBank NM_133765, vs mice given only isoproterenol): −2.4
- FC Ras homolog gene family, member U (Arhu) (Rhou) (GenBank NM_133955, vs mice given only isoproterenol): −2.5
- FC Peroxisomal biogenesis factor 12 (Pex12) (GenBank NM_134025, vs mice given only isoproterenol): −2.4
- FC PHD finger protein 21A (Phf21a) (GenBank NM_138755, vs mice given only isoproterenol): 2.1
- FC Glutamate-ammonia ligase (Glu1) (GenBank U09114, vs mice given only isoproterenol): −3.5
- FC Gem GTPase (Gem) (GenBank U10551, vs mice given only isoproterenol): −2.8
- FC P19-protein tyrosine phosphatase (Ptpn12) (GenBank X63440, vs mice given only isoproterenol): −1.5
- Cyclin G2 (Ccng2), Microarray FC [1]: −3.1 FC
- Cyclin-dependent kinase inhibitor 1A (p21) (Cdkn1a), Microarray FC [1]: −6.5 FC
- Cytokine inducible SH2-containing protein 3 (Socs3), Microarray FC [1]: −4.9 FC
- DNA-damage-inducible transcript 4 (Ddit4), Microarray FC [1]: −5.6 FC
- GATA binding protein 4 (Gata4), Microarray FC [1]: 2.7 FC
- Gem GTPase (Gem), Microarray FC [1]: −2.8 FC
- Lipocalin 2 (Lcn2), Microarray FC [1]: −13.3 FC
- Matrix metalloproteinase 3 (Mmp3), Microarray FC [1]: −2.9 FC
- Metallothionein 1 (MT2), Microarray FC [1]: −5.5 FC
- NADPH oxidase 4 (Nox4), Microarray FC [1]: −3.2 FC
- Oncostatin receptor (Osmr), Microarray FC [1]: −2.6 FC
- Phospholipase A2 group VII (platelet-activating factor acetylhydrolase, plasma) (Pla2g7), Microarray FC [1]: −2.2 FC
- S100 calcium binding protein A8 (calgranulin A) (S100a8), Microarray FC [1]: −19.9 FC
- S100 calcium binding protein A9 (calgranulin B) (S100a9), Microarray FC [1]: −14.0 FC
- SET and MYND domain containing 1 (Smyd1), Microarray FC [1]: 2.7 FC
- Serine protease inhibitor 2-2 (Spi2-2) (Serpin3n), Microarray FC [1]: −9.7 FC
- Transformation related protein 53 inducible nuclear protein 1 (Trp53inp1), Microarray FC [1]: −3.5 FC
- Tubulin, alpha 4 (Tuba4), Microarray FC [1]: 5.8 FC
- FC Ankyrin repeat domain 47 (Ankrd47), C79906 [2]: −2.0 fold
- FC Procollagen, type IV, alpha 1 (Col4a1), AW536690 [2]: −2.4 fold
- FC cDNA, AV293532 [3]: −1.5 fold
- FC cDNA, BG073457 [3]: −1.9 fold
- FC cDNA, BI689897 [3]: −1.8 fold
- FC AT rich interactive domain 5B (Mrf1 like) (Arid5b), BB079486 [4]: −2.0 fold
- FC Actin binding LIM protein family, member 3 (Ablim3), BB667786 [4]: −2.4 fold
- FC Chloride intracellular channel 5 (Circ5), AA210377 [4]: −1.7 fold
- FC Fatty acid binding protein 4, adipocyte (Fabp4), BC002148 [4]: −2.1 fold
- FC cDNA, AK005293 [4]: −1.8 fold
- FC cDNA, BM215139 [4]: −1.7 fold
- FC Chitinase 3-like 3; chitinase 3-like 4, AY065557 [5]: −2.4 fold
- FC cDNA, BI683916 [5]: −2.6 fold
- FC Casitas B-lineage lymphoma b (Cblb), AV276986 [6]: −1.7 fold
- FC Choline kinase (Chk), NM_013490 [6]: −1.9 fold
- FC Coiled-coil domain containing 85A (Ccdc85a), AW060797 [6]: −2.0 fold
- FC Transglutaminase 2, C polypeptide (Tgm2), AW321975 [6]: −1.8 fold
- FC cDNA, AV228737 [6]: −2.1 fold
- FC cDNA, BB447627 [6]: −1.6 fold
- FC Adenosine deaminase (Ada), NM_007398 [7]: −2.4 fold
- FC CXC chemokine (angie2) (Cxcl13), AF030636 [7]: −2.2 fold
- FC EST, AV032095 [7]: −1.8 fold
- FC EST, BE630073 [7]: −2.0 fold
- FC cDNA, AI788755 [7]: −2.3 fold
- FC cDNA, BB431047 [7]: −2.2 fold
- FC Angiogenin, ribonuclease A family, member 1 (Ang1), AI385586 (mouse heart, vs isoproterenol only (CH), CH vs normal 2.1, second AI385586 line): −1.6 fold
- FC Amine oxidase, copper containing 3 (Aoc3), NM_009675 [8]: −2.4 fold
- FC CD14 antigen (CD14), NM_009841 [8]: −2.0 fold
- FC Cyclin G2 (Ccng2), U95826 [8]: −2.5 fold
- FC Flavin containing monooxygenase 1 (Fmo1), BC011229 [8]: −2.0 fold
- FC RAN binding protein 9 (Ranbp9), mRNA., NM_019930 [8]: −2.3 fold
- FC cDNA, BB408123 [8]: −2.0 fold
- FC cDNA, BB769119 [8]: −2.2 fold
- FC cDNA, BG075321 [8]: −2.5 fold
- FC cDNA, BG919470 [8]: −2.0 fold
- FC A disintegrin-like and metallopeptidase (reprolysin type) with thrombospondin (ADAMTS)-like 2 (Adamtsl2), AK020831 [9]: −1.8 fold
- FC CCAATenhaer binding protein (CEBP), beta (Cebpb), NM_009883 [9]: −1.9 fold
- FC cDNA, BB248249 [9]: −2.1 fold
- FC cDNA, BB258019 [9]: −2.3 fold
- FC cDNA, BB272245 [9]: −1.6 fold
- FC cDNA, BC003209 [9]: −2.1 fold
- FC cDNA, BF466929 [9]: −2.8 fold
- FC Apical protein, Xenopus laevis-like (Apx1), BQ176992 [10]: −1.7 fold
- FC Purine-nucleoside phosphorylase (Pnp), BC003788 [10]: −2.0 fold
- FC cDNA, BB398891 [10]: −2.2 fold
- FC cDNA, BC027342 [10]: −2.8 fold
- FC ATP-binding cassette, sub-family G (WHITE), member 2 (Abcg2), NM_011920 [11]: −1.7 fold
- FC Angiogenin, ribonuclease A family, member 1 (Ang1), NM_007447 [11]: −2.1 fold
- FC ESTs, AI447357 [11]: −2.5 fold
- FC cDNA, BB787946 [11]: −2.3 fold
- FC cDNA, BE956940 [11]: −2.2 fold
- FC cDNA, BG065702 [11]: −2.5 fold
- FC Casitas B-lineage lymphoma b (Cblb), BB205662 [12]: −2.1 fold
- FC Cysteine proteinase cathepsin L (Ctsl), J02583 [12]: −2.1 fold
- FC Dipeptidase 1 (Dpep1), NM_007876 [12]: −2.3 fold
- FC Fc fragment of IgG, low affinity IIIa, receptor (Fcrl3), BC027310 [12]: −2.7 fold
- FC cDNA, AV234245 [12]: −1.8 fold
- FC cDNA, AW552579 [12]: −2.4 fold
- FC Bcl2-like (Bcl211), BM228788 [13]: −1.9 fold
- FC Ceruloplasmin (Cp), NM_007752 [13]: −1.7 fold
- FC G7e protein, NM_033075 [13]: −2.2 fold
- FC Mitogen activated protein kinase kinase kinase 8 (Map3k8), NM_007746 [13]: −3.0 fold
- FC cDNA, BB200607 [13]: −2.7 fold
- FC cDNA, BC019553 [13]: 1.7 fold
- FC cDNA, BG071024 [13]: −2.8 fold
- FC cDNA, BQ174442 [13]: −2.2 fold
- FC cDNA, AV365503 (mouse heart, vs isoproterenol only (CH), CH vs normal 2.8, first AV365503 line): −3.0 fold
- FC Carbonic anhydrase 4 (Car4), NM_007607 (mouse heart, vs isoproterenol only (CH), CH vs normal 2.8, second NM_007607 line): −4.3 fold
- FC ChaC, cation transport regulator-like 1 (Chac1), BC025169 [14]: −2.6 fold
- FC Decorin (Dcn), AV321547 [14]: −2.0 fold
- FC Glycoprotein (transmembrane) nmb (Gpnmb), NM_053110 [14]: −2.0 fold
- FC cDNA, BC004065 [14]: −3.1 fold
- FC cDNA, BC020080 [14]: −3.4 fold
- FC Amyotrophic lateral sclerosis 2 (juvenile) chromosome region, candidate 13 (Als2cr13), AV326938 [15]: −1.6 fold
- FC Chromodomain protein, Y chromosome-like (Cdyl), NM_009881 [15]: −2.0 fold
- FC C-type lectin domain family 1, member a (Clec1a), BB035924 [16]: −2.2 fold
- FC Casitas B-lineage lymphoma b (Cblb), AW545867 [16]: −2.1 fold
- FC Prostaglandin D synthetase (Ptdgs), AB006361 [16]: −2.3 fold
- FC cDNA, AA939619 [16]: −3.1 fold
- FC cDNA, AI790538 [16]: −2.0 fold
- FC Carbonic anhydrase 4 (Car4), NM_007607 (mouse heart, vs isoproterenol only (CH), CH vs normal 3.1, first NM_007607 line): −5.2 fold
- FC cDNA, AV365503 (mouse heart, vs isoproterenol only (CH), CH vs normal 3.1, second AV365503 line): −2.8 fold
- FC CUB and zona pellucida-like domains 1 (Cuzd1), NM_008411 [17]: −1.7 fold
- FC Chemokine (C—C motif) ligand 6 (Cc16) (MRP-1), BC002073 [17]: −1.9 fold
- FC G7e protein, BC027314 [17]: −3.1 fold
- FC Serine (or cysteine) peptidase inhibitor, clade A, member 3G (Serpina3g), BC002065 [17]: −3.6 fold
- FC cDNA, AV084904 [17]: −1.7 fold
- FC cDNA, AV369812 [17]: −2.5 fold
- FC cDNA, BB829165 [17]: −3.1 fold
- FC cDNA, BG297038 [17]: −3.3 fold
- FC cDNA, NM_133898 [17]: −3.3 fold
- FC Angiogenin, ribonuclease A family, member 1 (Ang1), AI385586 (mouse heart, vs isoproterenol only (CH), CH vs normal 3.2, first AI385586 line): −2.1 fold
- FC Pyruvate dehydrogenase kinase 4 (Pdk4), NM_013743 (mouse heart, vs isoproterenol only (CH), CH vs normal 3.3): −3.1 fold

— patent US20080305186A1, “Method and Composition for the Treatment of Cardiac Hypertrophy” (BOARD OF REGENTS, THE UNIVERSITY OF TEXAS SYSTEM, priority 2007, published 2008)
